# Measurements: ChEMBL document CHEMBL1201862, “PubChem BioAssay data set” (2004)
#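 Growth conditions: 96-well plates. Treatment: test compound, 48 hours, 5 concentrations. Analysis: linear interpolation between bracketing concentrations; unreached endpoints set to highest concentration. Abbreviation: GI50, concentration required for 50% inhibition of growth.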 The source made the active and inactive calls. Cut-off read from the data, not from the text of the source: active = GI50 up to about 1.1 µM and inactive = higher.
# Columns and labels:
# Experiment in all cases: inhibition of tumour cell growth, NCI panel, 48 h
# HT-29 = system: HT-29
# SNB-75 = system: SNB-75
# SF-295 = system: SF-295
# OVCAR-8 = system: OVCAR-8
# HCT-116 = system: HCT-116
# DLD-1 = system: DLD-1
# SF-268 = system: SF-268
# CCRF-CEM = system: CCRF-CEM
# RXF 393 = system: RXF 393
# HCT-15 = system: HCT-15
# SNB-78 = system: SNB-78
# SK-MEL-28 = system: SK-MEL-28
# OVCAR-4 = system: OVCAR-4
# KM-20L2 = system: KM-20L2
# KM12 = system: KM12
# TK-10 = system: TK-10
# M14 = system: M14
# SK-MEL-2 = system: SK-MEL-2
# M19-MEL = system: M19-MEL
# 786-0 = system: 786-0
# LOX IMVI = system: LOX IMVI
# A498 = system: A498
# A549 = system: A549
# EKVX = system: EKVX
# NCI-H23 = system: NCI-H23
# U-251 = system: U-251
# DMS-273 = system: DMS-273
# Malme-3M = system: Malme-3M
# HOP-92 = system: HOP-92
# HL-60 = system: HL-60
# UACC-257 = system: UACC-257
# ACHN = system: ACHN
# NCI-H460 = system: NCI-H460
# SN12C = system: SN12C
# SK-OV-3 = system: SK-OV-3
# OVCAR-3 = system: OVCAR-3
# COLO 205 = system: COLO 205
# UACC-62 = system: UACC-62
# SNB-19 = system: SNB-19
# HOP-62 = system: HOP-62
# LXFL 529 = system: LXFL 529
# SF-539 = system: SF-539
# SK-MEL-5 = system: SK-MEL-5
# MOLT-4 = system: MOLT-4
# NCI-H522 = system: NCI-H522
# OVCAR-5 = system: OVCAR-5
# UO-31 = system: UO-31
# IGROV-1 = system: IGROV-1
# HOP-18 = system: HOP-18
# RPMI-8226 = system: RPMI-8226
# K562 = system: K562
# SR = system: SR
# DMS-114 = system: DMS-114
# SW-620 = system: SW-620
# CAKI-1 = system: CAKI-1
# NCI-H226 = system: NCI-H226
# DU-145 = system: DU-145
# MDA-N = system: MDA-N
# T47D = system: T47D
# PC-3 = system: PC-3
# BT-549 = system: BT-549
# MCF7 = system: MCF7
# Hs-578T = system: Hs-578T
# MDA-MB-231 = system: MDA-MB-231
# MDA-MB-435 = system: MDA-MB-435
smiles,measurement,setting,value
CCCN1CN(C(C(=O)N[C@@H]2C(=O)N3C(C(=O)O)=C(C)CSC23)c2ccccc2)CSC1=S (stereo not given in full),GI50,HT-29,> 100 µM (inactive)
same,GI50,SNB-75,> 100 µM (inactive)
same,GI50,SF-295,> 100 µM (inactive)
same,GI50,OVCAR-8,> 100 µM (inactive)
same,GI50,HCT-116,> 100 µM (inactive)
same,GI50,DLD-1,> 100 µM (inactive)
same,GI50,SF-268,> 100 µM (inactive)
same,GI50,CCRF-CEM,95.1 µM (inactive)
same,GI50,RXF 393,25.9 µM (inactive)
same,GI50,HCT-15,42 µM
same,GI50,SNB-78,> 100 µM (inactive)
same,GI50,SK-MEL-28,> 100 µM (inactive)
same,GI50,OVCAR-4,> 100 µM (inactive)
same,GI50,KM-20L2,> 100 µM (inactive)
same,GI50,KM12,> 100 µM (inactive)
same,GI50,TK-10,> 100 µM (inactive)
same,GI50,M14,> 100 µM (inactive)
same,GI50,SK-MEL-2,> 100 µM (inactive)
same,GI50,M19-MEL,> 100 µM (inactive)
same,GI50,786-0,> 100 µM (inactive)
same,GI50,LOX IMVI,47.4 µM (inactive)
same,GI50,A498,> 100 µM (inactive)
same,GI50,A549,> 100 µM (inactive)
same,GI50,EKVX,> 100 µM (inactive)
same,GI50,NCI-H23,> 100 µM (inactive)
same,GI50,U-251,> 100 µM (inactive)
same,GI50,DMS-273,> 100 µM (inactive)
same,GI50,Malme-3M,> 100 µM (inactive)
same,GI50,HOP-92,> 100 µM (inactive)
same,GI50,HL-60,86.9 µM (inactive)
same,GI50,UACC-257,> 100 µM (inactive)
same,GI50,ACHN,> 100 µM (inactive)
same,GI50,NCI-H460,42.5 µM (inactive)
same,GI50,SN12C,> 100 µM (inactive)
same,GI50,SK-OV-3,> 100 µM (inactive)
same,GI50,OVCAR-3,68.1 µM (inactive)
same,GI50,COLO 205,47.1 µM (inactive)
same,GI50,UACC-62,> 100 µM (inactive)
same,GI50,SNB-19,> 100 µM (inactive)
same,GI50,HOP-62,> 100 µM (inactive)
same,GI50,LXFL 529,> 100 µM (inactive)
same,GI50,SF-539,> 100 µM (inactive)
same,GI50,SK-MEL-5,> 100 µM (inactive)
same,GI50,MOLT-4,> 100 µM (inactive)
same,GI50,NCI-H522,23 µM (inactive)
same,GI50,OVCAR-5,> 100 µM (inactive)
same,GI50,UO-31,> 100 µM (inactive)
same,GI50,IGROV-1,> 100 µM (inactive)
same,GI50,HOP-18,> 100 µM (inactive)
same,GI50,RPMI-8226,40.9 µM (inactive)
same,GI50,K562,47.6 µM (inactive)
O=c1c2ccccc2nc(-c2ccccc2)n1NC(=S)Nc1ccccc1,GI50,HT-29,> 100 µM (inactive)
same,GI50,SNB-75,38.3 µM (inactive)
same,GI50,SF-295,> 100 µM (inactive)
same,GI50,SR,> 100 µM (inactive)
same,GI50,OVCAR-8,> 100 µM (inactive)
same,GI50,DMS-114,14.3 µM (inactive)
same,GI50,HCT-116,> 100 µM (inactive)
same,GI50,DLD-1,> 100 µM (inactive)
same,GI50,SF-268,> 100 µM (inactive)
same,GI50,CCRF-CEM,> 100 µM (inactive)
same,GI50,RXF 393,> 100 µM (inactive)
same,GI50,HCT-15,> 100 µM
same,GI50,SK-MEL-28,34.8 µM (inactive)
same,GI50,SW-620,> 100 µM (inactive)
same,GI50,OVCAR-4,> 100 µM (inactive)
same,GI50,KM12,> 100 µM (inactive)
same,GI50,TK-10,> 100 µM (inactive)
same,GI50,M14,> 100 µM (inactive)
same,GI50,SK-MEL-2,> 100 µM (inactive)
same,GI50,M19-MEL,94.4 µM (inactive)
same,GI50,786-0,> 100 µM (inactive)
same,GI50,LOX IMVI,91 µM (inactive)
same,GI50,A498,> 100 µM (inactive)
same,GI50,A549,> 100 µM (inactive)
same,GI50,NCI-H23,> 100 µM (inactive)
same,GI50,U-251,> 100 µM (inactive)
same,GI50,DMS-273,> 100 µM (inactive)
same,GI50,Malme-3M,> 100 µM (inactive)
same,GI50,HOP-92,> 100 µM (inactive)
same,GI50,HL-60,> 100 µM (inactive)
same,GI50,CAKI-1,> 100 µM (inactive)
same,GI50,UACC-257,> 100 µM (inactive)
same,GI50,NCI-H226,> 100 µM (inactive)
same,GI50,ACHN,> 100 µM (inactive)
same,GI50,NCI-H460,> 100 µM (inactive)
same,GI50,SN12C,> 100 µM (inactive)
same,GI50,SK-OV-3,> 100 µM (inactive)
same,GI50,COLO 205,> 100 µM (inactive)
same,GI50,UACC-62,> 100 µM (inactive)
same,GI50,HOP-62,> 100 µM (inactive)
same,GI50,LXFL 529,81.8 µM (inactive)
same,GI50,SF-539,> 100 µM (inactive)
same,GI50,SK-MEL-5,89.1 µM (inactive)
same,GI50,MOLT-4,> 100 µM (inactive)
same,GI50,NCI-H522,> 100 µM (inactive)
same,GI50,OVCAR-5,> 100 µM (inactive)
same,GI50,UO-31,81.7 µM (inactive)
same,GI50,IGROV-1,> 100 µM (inactive)
same,GI50,HOP-18,> 100 µM (inactive)
same,GI50,RPMI-8226,> 100 µM (inactive)
same,GI50,K562,> 100 µM (inactive)
O=C1C=CN(C2OC(CO)C(O)C2O)C(=O)C1 (stereo not given),GI50,HT-29,32.3 µM (inactive)
same,GI50,SNB-75,838 µM (inactive)
same,GI50,DU-145,9.38 µM (inactive)
same,GI50,MDA-N,62.5 µM (inactive)
same,GI50,T47D,173 µM (inactive)
same,GI50,SR,5.42 µM (inactive)
same,GI50,HCT-116,1.51 µM (inactive)
same,GI50,DLD-1,24.6 µM (inactive)
same,GI50,CCRF-CEM,6.87 µM (inactive)
same,GI50,RXF 393,372 µM (inactive)
same,GI50,PC-3,155 µM (inactive)
same,GI50,HCT-15,17.9 µM
same,GI50,BT-549,> 2500 µM (inactive)
same,GI50,MCF7,7.76 µM (inactive)
same,GI50,SW-620,32.5 µM (inactive)
same,GI50,Hs-578T,126 µM (inactive)
same,GI50,KM-20L2,67.3 µM (inactive)
same,GI50,TK-10,2210 µM (inactive)
same,GI50,M14,231 µM (inactive)
same,GI50,M19-MEL,35.6 µM (inactive)
same,GI50,786-0,13.3 µM (inactive)
same,GI50,LOX IMVI,12 µM (inactive)
same,GI50,A498,867 µM (inactive)
same,GI50,A549,17.8 µM (inactive)
same,GI50,EKVX,> 2500 µM (inactive)
same,GI50,DMS-273,1730 µM (inactive)
same,GI50,HL-60,9.46 µM (inactive)
same,GI50,CAKI-1,22.3 µM (inactive)
same,GI50,UACC-257,1130 µM (inactive)
same,GI50,NCI-H226,423 µM (inactive)
same,GI50,ACHN,39.2 µM (inactive)
same,GI50,NCI-H460,0.942 µM (active)
same,GI50,SN12C,10 µM (inactive)
same,GI50,SK-OV-3,1320 µM (inactive)
same,GI50,OVCAR-3,692 µM (inactive)
same,GI50,COLO 205,27.1 µM (inactive)
same,GI50,UACC-62,50.4 µM (inactive)
same,GI50,HOP-62,36.3 µM (inactive)
same,GI50,SF-539,91.6 µM (inactive)
same,GI50,MDA-MB-231,363 µM (inactive)
same,GI50,MOLT-4,8.34 µM (inactive)
same,GI50,OVCAR-5,1350 µM (inactive)
same,GI50,UO-31,29.7 µM (inactive)
same,GI50,IGROV-1,223 µM (inactive)
same,GI50,HOP-18,557 µM (inactive)
same,GI50,MDA-MB-435,161 µM (inactive)
same,GI50,RPMI-8226,5.47 µM (inactive)
same,GI50,K562,1.58 µM (inactive)
